From PMC5253077 (Acta biomaterialia, 2016)
Converted amounts (≈) assume the structure as drawn. Square brackets hold non-standard residues; d marks the D form. Peptide text beside a SMILES is read from it.

Columns and labels:
HeLa CCL-2 cells = format: cell-based, human
[1] = tested on: E. coli ATCC 25922 and ML-35p strains; conditions: cited from earlier work
E. coli ATCC 35218 = conditions: cited from earlier work
B. megaterium = conditions: cited from earlier work
S. aureus ATCC 25923 = conditions: cited from earlier work
E. coli K12 = format: cell-based, Escherichia coli; conditions: K12, 20 h
S. epidermidis 1457 = format: cell-based, Staphylococcus epidermidis; conditions: 1457, 20 h
B. subtilis 168 = format: cell-based, Bacillus subtilis; conditions: 168, 20 h
S. aureus USA300 [2] = format: cell-based, Staphylococcus aureus; conditions: USA300, 20 h
S. aureus USA300 [3] = format: cell-based, Staphylococcus aureus
[4] = tested on: Candida albicans ATCC 10231; format: cell-based; conditions: ATCC 10231, 48 h
C. glabrata ATCC 2001 = format: cell-based, Candida glabrata; conditions: ATCC 2001, 48 h
C. tropicalis ATCC 13803 = format: cell-based, Candida tropicalis; conditions: ATCC 13803, 48 h
Porcine RBCs = test: Hemolytic assay; format: cell-based, pig; conditions: 2% blood cells in PBS, 37°C, one hour, hemoglobin at 545 nm
Chicken RBCs = test: Hemolytic assay; format: cell-based; conditions: 2% blood cells in PBS, 37°C, one hour, hemoglobin at 545 nm
Human HEK293 = test: MTS cytotoxicity assay; format: cell-based; conditions: kidney cells
Human HaCaT = test: MTS cytotoxicity assay; format: cell-based; conditions: skin keratinocytes
Human HeLa (HeLa CCL-2) = test: MTS cytotoxicity assay; format: cell-based

MIC E. coli K12 (E. coli K12) [µM]	MIC S. epidermidis 1457 (S. epidermidis 1457) [µM]	MIC B. subtilis 168 (B. subtilis 168) [µM]	MIC S. aureus USA300 (S. aureus USA300 [2]) [µM]	Structure (SMILES)	MIC against S. aureus USA300, 150 mM NaCl (S. aureus USA300 [2]) [µM]	MIC against S. aureus USA300, pH 6.8 (S. aureus USA300 [2]) [μM]	MIC against S. aureus USA300, Normal medium (pH 7.4) (S. aureus USA300 [2])	MIC against S. aureus USA300, pH 8 (S. aureus USA300 [2]) [μM]	MBC S. aureus USA300 (S. aureus USA300 [3]) [µM]	MIC Candida albicans [4] [µM]	MIC Candida glabrata (C. glabrata ATCC 2001) [µM]	MIC Candida tropicalis (C. tropicalis ATCC 13803) [µM]	other results
				CC[C@H](C)[C@H](NC(=O)[C@H](CCCNC(=N)N)NC(=O)[C@H](CCCNC(=N)N)NC(=O)[C@H](CC(C)C)NC(=O)[C@H](Cc1c[nH]c2ccccc12)NC(=O)[C@H](Cc1c[nH]c2ccccc12)NC(=O)[C@H](Cc1c[nH]c2ccccc12)NC(=O)[C@@H](N)CS)C(=O)N[C@@H](Cc1c[nH]c2ccccc12)C(=O)O [CysTetraF2W-RR] (H-CWWWLRRIW-OH)									cytotoxicity of free peptide to HeLa CCL-2 cells (HeLa CCL-2 cells): nontoxic
				CC[C@H](C)[C@H](NC(=O)[C@H](CCCNC(=N)N)NC(=O)[C@H](CO)NC(=O)[C@H](CC(C)C)NC(=O)[C@H](Cc1ccccc1)NC(=O)[C@H](Cc1ccccc1)NC(=O)[C@@H](N)Cc1ccccc1)C(=O)N[C@@H](Cc1ccccc1)C(N)=O [Temporin-SHf] (H-FFFLSRIF-NH2; N-terminus and C-terminus assumed)									MIC E. coli ATCC 25922 and ML-35p strains [1]: 25 to 30 µM; MIC E. coli ATCC 35218 (E. coli ATCC 35218): > 200 µM; MIC B. megaterium (B. megaterium): 3 µM (≈ 3.23 µg/mL); MIC S. aureus ATCC 25923 (S. aureus ATCC 25923): 12.5 µM (≈ 13.4 µg/mL)
6.2 (≈ 7.9 µg/mL)	6.2 (≈ 7.9 µg/mL)	3.1 (≈ 3.95 µg/mL)	3.1 (≈ 3.95 µg/mL)	CC[C@@H](C)[C@@H](NC(=O)[C@@H](CCCCN)NC(=O)[C@@H](CCCNC(=N)N)NC(=O)[C@@H](CC(C)C)NC(=O)[C@@H](Cc1c[nH]c2ccccc12)NC(=O)[C@@H](Cc1c[nH]c2ccccc12)NC(=O)[C@H](N)Cc1c[nH]c2ccccc12)C(=O)N[C@H](Cc1c[nH]c2ccccc12)C(=O)O [TetraF2W-RK-d] (H-[dW][dW][dW][dL][dR][dK][dI][dW]-OH)					12.5 (≈ 15.9 µg/mL)				
25 (≈ 31.8 µg/mL)	6.2 (≈ 7.9 µg/mL)	6.2 (≈ 7.9 µg/mL)	3.1 (≈ 3.95 µg/mL)	CC[C@H](C)[C@H](NC(=O)[C@H](CCCCN)NC(=O)[C@H](CCCNC(=N)N)NC(=O)[C@H](CC(C)C)NC(=O)[C@H](Cc1c[nH]c2ccccc12)NC(=O)[C@H](Cc1c[nH]c2ccccc12)NC(=O)[C@@H](N)Cc1c[nH]c2ccccc12)C(=O)N[C@@H](Cc1c[nH]c2ccccc12)C(=O)O [TetraF2W-RK] (H-WWWLRKIW-OH)	3.1 (≈ 3.95 µg/mL)	6.2	3.1 μM	3.1	12.5 (≈ 15.9 µg/mL)	12.5 (≈ 15.9 µg/mL)	12.5 (≈ 15.9 µg/mL)	3.1 to 6.2	
>100	>50	6.2 (≈ 7.64 µg/mL)	3.1 to 6.2	CC[C@H](C)[C@H](NC(=O)[C@H](CCCNC(=N)N)NC(=O)[C@H](CO)NC(=O)[C@H](CC(C)C)NC(=O)[C@H](Cc1c[nH]c2ccccc12)NC(=O)[C@H](Cc1c[nH]c2ccccc12)NC(=O)[C@@H](N)Cc1c[nH]c2ccccc12)C(=O)N[C@@H](Cc1c[nH]c2ccccc12)C(=O)O [TetraF2W] (H-WWWLSRIW-OH)					6.2 (≈ 7.64 µg/mL)				

Structure (SMILES)	MIC E. coli K12 (E. coli K12) [µM]	MIC S. epidermidis 1457 (S. epidermidis 1457) [µM]	MIC B. subtilis 168 (B. subtilis 168) [µM]	MIC S. aureus USA300 (S. aureus USA300 [2]) [µM]	MIC against S. aureus USA300, 150 mM NaCl (S. aureus USA300 [2]) [µM]	MIC against S. aureus USA300, pH 6.8 (S. aureus USA300 [2]) [μM]	MIC against S. aureus USA300, Normal medium (pH 7.4) (S. aureus USA300 [2])	MIC against S. aureus USA300, pH 8 (S. aureus USA300 [2]) [μM]	MBC S. aureus USA300 (S. aureus USA300 [3]) [µM]	MIC Candida albicans [4] [µM]	MIC Candida glabrata (C. glabrata ATCC 2001) [µM]	MIC Candida tropicalis (C. tropicalis ATCC 13803) [µM]	other results
CC[C@H](C)[C@H](NC(=O)[C@H](CCCCN)NC(=O)[C@H](CCCCN)NC(=O)[C@H](CC(C)C)NC(=O)[C@H](Cc1c[nH]c2ccccc12)NC(=O)[C@H](Cc1c[nH]c2ccccc12)NC(=O)[C@@H](N)Cc1c[nH]c2ccccc12)C(=O)N[C@@H](Cc1c[nH]c2ccccc12)C(=O)O [TetraF2W-KK] (H-WWWLKKIW-OH)	12.5 to 25	6.2 (≈ 7.72 µg/mL)	6.2 (≈ 7.72 µg/mL)	3.1 to 6.2	3.1 to 6.2	12.5	3.1–6.2 μM	3.1	>25	6.2 (≈ 7.72 µg/mL)	6.2 to 12.5	1.6 (≈ 1.99 µg/mL)	LC50 (50% hemolytic concentration) Porcine RBCs (Porcine RBCs): 55 µM; LC50 (50% hemolytic concentration) Chicken RBCs (Chicken RBCs): 50 µM; LC50 Human HEK293 (Human HEK293): 50 µM; LC50 Human HaCaT (Human HaCaT): 50 µM; LC50 Human HeLa (Human HeLa (HeLa CCL-2)): 70 µM
CC[C@H](C)[C@H](NC(=O)[C@H](CCCNC(=N)N)NC(=O)[C@H](CCCCN)NC(=O)[C@H](CC(C)C)NC(=O)[C@H](Cc1c[nH]c2ccccc12)NC(=O)[C@H](Cc1c[nH]c2ccccc12)NC(=O)[C@@H](N)Cc1c[nH]c2ccccc12)C(=O)N[C@@H](Cc1c[nH]c2ccccc12)C(=O)O [TetraF2W-KR] (H-WWWLKRIW-OH)	12.5 to 25	12.5 (≈ 15.9 µg/mL)	6.2 (≈ 7.9 µg/mL)	3.1 (≈ 3.95 µg/mL)	3.1 (≈ 3.95 µg/mL)	6.2	3.1 μM	3.1	12.5 (≈ 15.9 µg/mL)	12.5 (≈ 15.9 µg/mL)	12.5 (≈ 15.9 µg/mL)	3.1 to 6.2	LC50 (50% hemolytic concentration) Porcine RBCs (Porcine RBCs): 50 µM; LC50 (50% hemolytic concentration) Chicken RBCs (Chicken RBCs): 35 µM; LC50 Human HEK293 (Human HEK293): 55 µM; LC50 Human HaCaT (Human HaCaT): 60 µM; LC50 Human HeLa (Human HeLa (HeLa CCL-2)): 100 µM
